Laboratory results taken from EP4005570B1, “P[…] USE IN TREATING RETT SYNDROME” (Prilenia Neurotherapeutics Ltd., priority 2016, dated 2018).
Values joined by “and” are separate entries in the source; they are usually repeats but may differ in a detail not shown here. Equal values may be shown once. Read-outs that look alike come from different tables or passages of the source.

Tests used:
[1] = test system: female MeCP2 (BIRD) mouse model of RTT
From the text: (§1) Dosing commenced when mice were ~5.5 weeks of age and continued through the end of behavioral testing. Behavioral testing was done at 8 and 12 weeks of age.
(§2) Female MeCP2 ([…], HET) mice and wild type (MeCP2_WT, WT) littermates were received in two cohorts at ~4.5 weeks of age from Jackson Laboratories. They were assigned unique identification numbers and group-housed in opti-MICE cages (Animal Care Systems, CO). All animals were examined and weighed prior to initiation and throughout the study to assure adequate health and suitability and to minimize nonspecific stress associated with manipulation. During the course of the study, 12/12 light/dark cycle was maintained. The room temperature was maintained between 20 and 23°C with a relative humidity maintained around 50%. Chow and water was provided ad libitum for the duration of the study. The tests were performed during the animal's light cycle phase.
(§3) Data from standard tests were analyzed by genotype (t-test) and by treatment (ANOVA) followed by post-hoc comparisons where appropriate. For some measures (i.e. body weights and PPI), repeated-measures ANOVAs were performed. For clasping data, N-1 two-proportional tests were performed. An effect was considered significant if p < 0.05. All data are represented as the mean and standard error to the mean (s.e.m). Values ± 2 standard deviations from the mean were considered outliers.

[2] = test system: female MeCP2 (BIRD) mouse model of RTT; details: for Recovery (%) Gait / Recovery (%) Paw Features / Recovery (%) Paw Positioning / Recovery (%) Body Motion / Recovery (%) Rhythmicity: HET mice
From the text: as §1, §2
Mice were placed in the NeuroCube for a 5 min test. The most dominant of the features collected that define the disease phenotype (symptom descriptors) was identified and ranked. Complex bioinformatic algorithms were employed to calculate the discrimination probability between the WT and the BIRD mice and detect a test compound's ability to reverse the disease phenotype. Discriminations between mutant and wild type was calculated as well as the recovery of disease features in HET mice treated with the test compound.
The output of NeuroCube is a set of dozens of behavioral features that are submitted for analysis with machine learning techniques used in bioinformatics. Many of these features are correlated (e.g. rearing counts and supported rearing counts). Therefore, PGI forms statistically independent combinations of the original features (further referred to as de-correlated features) that discriminate between the two groups more effectively.
Each de-correlated feature extracts information from the whole cluster of the original features, so the new feature space has lower dimensionality. Next, PGI applies a proprietary feature ranking algorithm to score each feature's discrimination power (ability to separate the two groups, e.g. control and disease).
Ranking is an important part of the analyses because it weighs each feature change by its relevance: if there is a significant change in some irrelevant feature measured for a particular phenotype, the low rank of this feature will automatically reduce the effect of such change in the analyses, so there is no need to resort to the conventional "feature selection" approach and discard information buried in the less informative features. Ranking algorithm can be applied to either original or the new features to gain insight about the key control-disease differences (see Figure 1).
In the new feature space, the overlap between the "clouds" (Gaussian distributions approximating the groups of mice in the ranked de-correlated features space) serves as a quantitative measure of separability ("distinguishability") between the two groups (see Figure 2). For visualization purposes, each cloud was plotted with its semi-axes equal to the one standard deviation along the corresponding dimensions.

BDNF = details: whole brain; 3 and 30 mg/kg BID; vs MeCP2_HET vehicle
Experimental: Mice were euthanized via cervical dislocation and decapitated. From 10 mice/treatment group, whole brains were collected, weighed, and then frozen on dry ice. Samples were stored at - 80°C until analysis of brain-derived neurotrophic factor (BDNF).
Once tissues were disrupted, samples were allowed to incubate at room temperate for 5 minutes.
Briefly, 150µL of Chloroform (Cat # C2432, Sigma-Aldrich, St. Louis, MO) was added and samples were shaken vigorously for 15 seconds followed by 3-minute incubation at room temperature. The aqueous phase was separated from the organic phase by centrifugation at 6,000 x g (Beckman Coulter Avanti J-30I), 4°C for 15 minutes. The aqueous phase was then transferred to a new 96-well block and total RNA was precipitated with equal volume of 70% ethanol. Content was transferred to an RNeasy 96-well plate, followed by centrifuge at 6,000-x g (Beckman Coulter Avanti J-30I), at room temperate for 4 minutes. […] RNA was eluted with RNase-Free water.
Samples were quantified using NanoDrop 8000 (Thermo Scientific). […]
Relative quantity of the PCR product (relative to the calibrator) was calculated as follows: [formula] […]
Geometric mean for the three housekeeping genes was calculated as follows: [formula]
Relative level of target gene was calculated as follows: Relative Quantity of Target gene÷Geometric mean of housekeeping genes [formula] […]

[3] = test system: patient afflicted with RTT; details: periodic administration (daily or twice daily), intravenously or orally
[4] = test system: female MeCP2 (BIRD) mouse model of RTT; details: for startle response: vs vehicle-treated HET mice
From the text: as §1, §2
Mice were placed in the PPI chambers (Med Associates) for a 5 min session of white noise (70 dB) habituation.
The inter-trial interval was variable with an average of 15 s (range from 10 to 20 s).
as §3

neuroblastoma cell line = details: S1R-dependent manner (Geva 2016); cited from earlier work
[5] = 12 weeks, 30 mg/kg BID, 30 mg/kg
[6] = 12 weeks, 30 mg/kg BID, listed as pridopidine, 30 mg/kg

CCCN1CCC(c2cccc(S(C)(=O)=O)c2)CC1 [Pridopidine, 4-[3-(methylsulfonyl)phenyl]-1-propyl-piperidine]
hindlimb clasping ([1]; 3 mg/kg BID, 8 and 12 weeks, vs HET-vehicle): did not have a significant effect | hindlimb clasping ([1]; 30 mg/kg BID, 12 weeks): this effect was not seen | gait measures ([2]; 3 mg/kg BID, compared with vehicle-treated mutants, age not stated): differed significantly | recovery of overall gait features ([2]; 3 mg/kg, 8 weeks of age, Figure 8A): no recovery | recovery of overall gait features ([2]; 3 mg/kg, 12 weeks of age, Figure 9A): no recovery | recovery of overall gait features ([2]; 30 mg/kg, 8 weeks of age, Figure 8B): 45% and 55% | recovery of overall gait features ([2]; 30 mg/kg, 8 weeks of age, Figure 8B, listed as pridopidine): significant recovery | recovery of overall gait features ([2]; 30 mg/kg, 12 weeks of age, Figure 9B): 55% | Recovery (%) Gait ([2]; 8 weeks, 3 mg/kg BID): 38% | Recovery (%) Paw Features ([2]; 8 weeks, 3 mg/kg BID): 0% | Recovery (%) Paw Positioning ([2]; 8 weeks, 3 mg/kg BID): 8% | Recovery (%) Body Motion ([2]; 8 weeks, 3 mg/kg BID, 3 mg/kg): 82% | Recovery (%) Body Motion ([2]; 8 weeks, 3 mg/kg BID, listed as pridopidine, 3 mg/kg): showed efficacy | Recovery (%) Gait ([2]; 8 weeks, 30 mg/kg BID): 71% | Recovery (%) Paw Features ([2]; 8 weeks, 30 mg/kg BID): 63% | Recovery (%) Paw Positioning ([2]; 8 weeks, 30 mg/kg BID): 35% | Recovery (%) Body Motion ([2]; 8 weeks, 30 mg/kg BID, 30 mg/kg): 84% | Recovery (%) Body Motion ([2]; 8 weeks, 30 mg/kg BID, listed as pridopidine, 30 mg/kg): showed efficacy | Recovery (%) Gait ([2]; 12 weeks, 3 mg/kg BID): 60% | Recovery (%) Paw Features ([2]; 12 weeks, 3 mg/kg BID): 0% | Recovery (%) Paw Positioning ([2]; 12 weeks, 3 mg/kg BID): 35% | Recovery (%) Rhythmicity ([2]; 12 weeks, 3 mg/kg BID): 41% | Recovery (%) Body Motion ([2]; 12 weeks, 3 mg/kg BID, 3 mg/kg): 65% | Recovery (%) Body Motion ([2]; 12 weeks, 3 mg/kg BID, listed as pridopidine, 3 mg/kg): showed efficacy | Recovery (%) Paw Features ([2]; 12 weeks, 30 mg/kg BID): 69% | Recovery (%) Paw Positioning ([2]; 12 weeks, 30 mg/kg BID): 52% | Recovery (%) Rhythmicity ([2]; 12 weeks, 30 mg/kg BID): 10% | Recovery (%) Body Motion [2, 5]: 59% | Recovery (%) Gait [2, 5]: 100% | Recovery (%) Body Motion [2, 6]: showed efficacy | Recovery (%) Gait [2, 6]: Significant effects | BDNF I mRNA expression (BDNF): None of the treatments had a significant effect | BDNF VI mRNA expression (BDNF): None of the treatments had a significant effect | treatment of the patient afflicted with RTT [3]: effective to treat the patient | startle response ([4]; 3 mg/kg BID, both ages (8 and 12 weeks)): increased startle response | startle response ([4]; 30 mg/kg BID): did not have a significant effect | prepulse inhibition response ([4]; 3 and 30 mg/kg BID, HET mice): No genotype or treatment effects were observed | secretion of the neuroprotective brain-derived neurotrophic factor (BDNF) (neuroblastoma cell line): enhances secretion
